The target in assay [1] is guinea pig ileum, contraction in response to histamine (Cavia porcellus, UniProt P31389). Put plainly: Antihistaminic action, in vitro test on isolated ileum (contraction in response to histamine). Conditions: 10^-8 to 10^-4 M histamine dose-response curve, 30 min after test compound, 29° C; for Kb: read-out: Anti-histaminic action, pA2 (converted).
Assay [2] relates to guinea pig ileum, contraction induced with LTD4. Put plainly: Antileukotriene action, in vitro test on isolated ileum (contraction induced with LTD4). Conditions: contraction induced with 10^-8 M LTD4; 29° C; read-out: Anti-LTD4 action IC50.
The target of the next assay is T1, H1 Receptor (Cavia porcellus, UniProt P31389).
T1 construct: guinea pig cerebral membrane protein; from tissue; host or cells: guinea pig cerebral membranes
T1 sequence (P31389 whole entry): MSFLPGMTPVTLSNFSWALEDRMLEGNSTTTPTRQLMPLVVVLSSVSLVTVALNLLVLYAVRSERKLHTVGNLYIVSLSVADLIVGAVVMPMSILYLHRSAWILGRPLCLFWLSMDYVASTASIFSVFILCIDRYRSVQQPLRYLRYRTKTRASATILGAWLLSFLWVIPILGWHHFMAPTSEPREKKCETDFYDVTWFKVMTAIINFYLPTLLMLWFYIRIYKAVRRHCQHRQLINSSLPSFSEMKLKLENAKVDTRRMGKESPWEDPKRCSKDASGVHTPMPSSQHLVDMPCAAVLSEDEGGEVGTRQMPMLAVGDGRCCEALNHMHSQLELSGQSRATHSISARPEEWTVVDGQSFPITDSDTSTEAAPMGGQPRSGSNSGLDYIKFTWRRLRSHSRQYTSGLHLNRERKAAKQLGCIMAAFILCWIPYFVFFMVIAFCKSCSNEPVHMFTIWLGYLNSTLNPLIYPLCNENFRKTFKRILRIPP
Briefly: H1 Receptor Binding Inhibitory Test. Also on record: species or system guinea pig. The procedure: Reaction was stopped by addition of ice-cold phosphate buffer, and immediately thereafter, the reaction mixture was filtered by use of a Wattman CF/C filter. The filter was washed twice, each time with 20 ml ice-cold buffer. Radioactivity of the residue was measured by use of a liquid scintillation counter. From the value as obtained when a test compound was not added and values as obtained when the test compound was added at different concentrations, there was determined a dose-response curve representing suppression action of the test compound, from which a 50% inhibitory concentration (IC50) was obtained. Based on the IC50 value and by use of the Cheng-Prusoff equation, a dissociation constant (KD) was calculated (Table 9). In a saturation test, 10^-4 M R(-)-dimetindene was used for the measurement of the amount of non-specific binding.

The target of a further assay is T2, LTD4 Receptor (Cavia porcellus, UniProt Q2NNR5).
T2 construct: guinea pig lung protein; from tissue; host or cells: guinea pig lung
T2 sequence (Q2NNR5 1-340): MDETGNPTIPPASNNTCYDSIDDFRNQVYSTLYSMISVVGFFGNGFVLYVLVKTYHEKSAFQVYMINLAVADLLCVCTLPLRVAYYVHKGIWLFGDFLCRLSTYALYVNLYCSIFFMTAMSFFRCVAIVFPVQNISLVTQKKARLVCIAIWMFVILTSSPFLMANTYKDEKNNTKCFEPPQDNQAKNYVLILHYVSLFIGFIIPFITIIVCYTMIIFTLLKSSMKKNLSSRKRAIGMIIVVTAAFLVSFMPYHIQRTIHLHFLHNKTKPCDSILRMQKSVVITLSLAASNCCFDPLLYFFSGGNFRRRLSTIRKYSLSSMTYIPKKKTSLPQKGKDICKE
Put plainly: LTD4 Receptor Binding Inhibitory Test. Also on record: species or system guinea pig. The procedure:
Reaction was stopped by addition of ice-cold Tris-HCl/NaCl (10 mM/100 mM, pH 7.5) buffer, and immediately thereafter, the reaction mixture was filtered by use of a Wattman CF/C filter. The filter was washed twice, each time with 20 ml ice-cold buffer. Radioactivity of the residue was measured by use of a liquid scintillation counter. […] In a saturation test, 2 μM leukotriene D4 was used for the measurement of the amount of non-specific binding.

25 compounds from US6117886A, “Tetrazole derivatives” (Kowa Co., Ltd., priority 1997, dated 2000) can be followed below.

Counter-ions that a name gives are not always drawn.

guinea pig ileum, contraction in response to histamine, sequence (P31389 whole entry): as the sequence (P31389 whole entry) above

For the compound `COc1ccc2[nH]c(=O)c(-c3nnn(Cc4cccc(OCc5ccc6ccccc6n5)c4)n3)cc2c1` [Example 1, 6-methoxy-3-{2-[3-(2-quinolylmethoxy)benzyl]tetrazolyl}quinolin-2-one], in assay [1], the “Anti-histaminic action, pD'2” value turned out to be 5.53. The IC50 (as a rule, the concentration needed to halve the response being measured) in assay [2] was 0.09 µM. For the same compound, the results for the Kd on H1 Receptor and on LTD4 Receptor were 2.96 µM and 0.114 µM, respectively.
`COc1ccc2[nH]c(=O)c(-c3nnnn3Cc3cccc(OCc4ccc5ccccc5n4)c3)cc2c1` [Example 2, 6-methoxy-3-{1-[3-(2-quinolylmethoxy)benzyl]tetrazolyl}quinolin-2-one]: the Kb in assay [1] is 4.17 µM. Moreover, the IC50 in assay [2] was determined as 0.25 µM.
On to `CCOCCn1c(COc2ccc(Cn3nnc(-c4cc5cc(OC)ccc5[nH]c4=O)n3)cc2)nc2ccccc21` [Example 6, 3-{2-{4-[N-(2-Ethoxyethyl)benzimidazol-2-ylmethoxy]benzyl}tetrazolyl}-6-methoxyquinolin-2-one], for which the Kb in assay [1] was 0.0407 µM. In assay [2], the IC50 is 1.1 µM. For the same compound, the results for the Kd on H1 Receptor and at LTD4 Receptor were 3.29 µM and 8.11 µM, respectively.
With `Cn1c(COc2cccc(Cn3nnc(-c4cc5ccccc5[nH]c4=O)n3)c2)nc2ccccc21` [Example 8, 3-{2-[3-(N-Methylbenzimidazol-2-ylmethoxy)benzyl]tetrazolyl}quinolin-2-one], the Kd (in general, the concentration at which binding is half-saturated) is 9.38 µM at H1 Receptor and 0.143 µM on LTD4 Receptor.
Turning to `Cn1c(COc2cccc(Cn3nnnc3-c3cc4ccccc4[nH]c3=O)c2)nc2ccccc21` [Example 9, 3-{1-[3-(N-Methylbenzimidazol-2-ylmethoxy)benzyl]tetrazolyl}quinolin-2-one], the Kd was found to be 13.7 µM on H1 Receptor and 0.32 µM on LTD4 Receptor.
For `CC(C)(C)c1ccc2[nH]c(=O)c(-c3nnnn3Cc3cccc(OCc4ccc5ccccc5n4)c3)cc2c1` [Example 18, 6-tert-Butyl-3-{1-[3-(2-quinolylmethoxy)-benzyl]tetrazolyl}quinolin-2-one], in that order: 22.8 µM and 0.509 µM.
As for `O=c1[nH]c2ccc(O)cc2cc1-c1nnn(Cc2ccc(OCc3ccc4ccccc4n3)cc2)n1` [Example 22, 6-Hydroxy-3-{2-[4-(2-quinolylmethoxy)benzyl]-tetrazolyl}quinolin-2-one], the figures for the Kd at H1 Receptor and at LTD4 Receptor were 30.1 µM and 0.364 µM, respectively.
For `COc1ccc2[nH]c(=O)c(-c3nnn(Cc4ccc(OCc5ccc6ccccc6n5)cc4)n3)cc2c1` [Example 24, 6-Methoxy-3-{2-[4-(2-quinolylmethoxy)benzyl]-tetrazolyl}quinolin-2-one], in that order: 9.51 µM and 0.205 µM.
In the case of `COc1ccc2[nH]c(=O)c(-c3nnnn3Cc3ccc(OCc4ccc5ccccc5n4)cc3)cc2c1` [Example 25, 6-Methoxy-3-{1-[4-(2-quinolylmethoxy)benzyl]-tetrazolyl}quinolin-2-one], the Kd at H1 Receptor turned out to be 13.9 µM; at LTD4 Receptor, 0.00586 µM.
With `O=c1[nH]c2ccccc2cc1-c1nnn(Cc2cccc(OCc3ccc4ccccc4n3)c2)n1` [Example 26, 3-{2-[3-(2-Quinolylmethoxy)benzyl]-tetrazolyl}quinolin-2-one], the “Anti-histaminic action, pD'2” value in assay [1] is 5.24. Also, in assay [2], the half-maximal inhibitory concentration (IC50) turned out to be 0.179 µM. In addition, the results for the Kd on H1 Receptor and on LTD4 Receptor were 89.5 µM and 0.179 µM, respectively.
In the case of `O=c1[nH]c2ccc(O)cc2cc1-c1nnn(Cc2cccc(OCc3ccc4ccccc4n3)c2)n1` [Example 28, 6-Hydroxy-3-{2-[3-(2-quinolylmethoxy)benzyl]-tetrazolyl}quinolin-2-one], the values for the Kd on H1 Receptor and on LTD4 Receptor were 13.9 µM and 0.021 µM, respectively.
For `O=c1[nH]c2ccc(O)cc2cc1-c1nnnn1Cc1cccc(OCc2ccc3ccccc3n2)c1` [Example 29, 6-Hydroxy-3-{1-[3-(2-quinolylmethoxy)benzyl]-tetrazolyl}quinolin-2-one], in that order: 57.2 µM and 0.0136 µM.
With `COc1ccc2c(c1)cc(-c1nnn(Cc3cccc(OCc4ccc5ccccc5n4)c3)n1)c(=O)n2C` [Example 38, 6-methoxy-1-methyl-3-{2-[3-(2-quinolylmethoxy)benzyl]tetrazolyl}quinolin-2-one], the “Anti-histaminic action, pD'2” value in assay [1] is listed as 5.52. In assay [2], the IC50 amounted to 0.16 µM.
On to `CN(C)CCn1c(=O)c(-c2nnn(Cc3cccc(OCc4ccc5ccccc5n4)c3)n2)cc2cc(O)ccc21` [Example 39, 1-Dimethylaminoethyl-6-hydroxy-3-{2-[3-(2-quinolylmethoxy)benzyl]tetrazolyl}quinolin-2-one], for which the Kb in assay [1] is 0.0302 µM.
Same read-out and setting: next, `CN(C)CCn1c(=O)c(-c2nnnn2Cc2cccc(OCc3ccc4ccccc4n3)c2)cc2cc(O)ccc21` [Example 40, 1-Dimethylaminoethyl-6-hydroxy-3-{1-[3-(2-quinolylmethoxy)benzyl]tetrazolyl}quinolin-2-one]: 0.251 µM.
On to `COc1ccc2c(c1)cc(-c1nnn(Cc3cccc(OCc4ccc5ccccc5n4)c3)n1)c(=O)n2CCN(C)C` [Example 41, 1-Dimethylaminoethyl-6-methoxy-3-{2-[3-(2-quinolylmethoxy)benzyl]tetrazolyl}quinolin-2-one], for which the “Anti-histaminic action, pD'2” value in assay [1] was 5.58.
As to `CN(C)CCCn1c(=O)c(-c2nnn(Cc3cccc(OCc4ccc5ccccc5n4)c3)n2)cc2cc(O)ccc21` [Example 42, 1-Dimethylaminopropyl-6-hydroxy-3-{2-[3-(2-quinolylmethoxy)benzyl]tetrazolyl}quinolin-2-one], the Kb in assay [1] is 0.055 µM.
Same read-out and setting: next, `CN(C)CCn1c(=O)c(-c2nnn(Cc3cccc(C=Cc4ccc5ccccc5n4)c3)n2)cc2cc(O)ccc21` [Example 43, 1-Dimethylaminoethyl-6-hydroxy-3-{2-[3-(2-quinolylethenyl)benzyl]tetrazolyl}quinolin-2-one]: 0.174 µM.
For the compound `COc1ccc2c(c1)cc(-c1nnn(Cc3cccc(OCc4ccc5ccccc5n4)c3)n1)c(=O)n2CCCN1CCN(Cc2ccc3ccccc3n2)CC1` [Example 45, 1-{3-[4-(2-quinolylmethyl)-1-piperazinyl]propyl}-6-methoxy-3-(2-[3-(2-quinolylmethoxy)benzyl]tetrazolyl)quinolin-2-one dihydrochloride], the Kb in assay [1] is 0.0219 µM. Moreover, in assay [2], the IC50 is 0.64 µM.
Consider `COc1ccc2c(c1)cc(-c1nnn(Cc3cccc(OCc4ccc5ccccc5n4)c3)n1)c(=O)n2CCCCN1CCN(Cc2ccc3ccccc3n2)CC1` [Example 47, 6-Methoxy-1-{4-[4-(2-quinolylmethyl)-piperazinyl]butyl}-3-{2-[3-(2-quinolylmethoxy)benzyl]tetrazolyl}quinolin-2-one dimalate], for which the Kb in assay [1] is 0.02 µM.
On the same count and under the same terms, next, `COc1ccc2c(c1)cc(-c1nnn(Cc3cccc(OCc4ccc5ccccc5n4)c3)n1)c(=O)n2CCCN1CCN(Cc2ccccn2)CC1` [Example 48, 6-Methoxy-1-{3-[4-(2-pyridylmethyl)-piperazinyl]propyl}-3-{2-[3-(2-quinolylmethoxy)benzyl]tetrazolyl}quinolin-2-one dihydrochloride]: 0.115 µM.
As to `CN1CCN(CCCOc2ccc3c(c2)cc(-c2nnn(Cc4cccc(OCc5ccc6ccccc6n5)c4)n2)c(=O)n3C)CC1` [Example 52, 1-methyl-6-[3-(4-metylpiperazinyl)propyl]oxy-3-{2-[3-(2-quinolylmethoxy)benzyl]tetrazolyl}quinolin-2-one trihydrochloride], the Kb in assay [1] was 0.912 µM. Further, in assay [2], the IC50 came to 1.3 µM.
In the case of `CC(=O)Oc1ccc2[nH]c(=O)c(-c3nnn(Cc4ccc(OCc5ccc6ccccc6n5)cc4)n3)cc2c1` [Example 56, 6-Acetoxy-3-{2-[4-(2-quinolylmethoxy)benzyl]-tetrazolyl}quinolin-2-one], the Kd on H1 Receptor amounted to 84.7 µM; on LTD4 Receptor, 0.336 µM.
The corresponding values for `CC(=O)Oc1ccc2[nH]c(=O)c(-c3nnn(Cc4cccc(OCc5ccc6ccccc6n5)c4)n3)cc2c1` [Example 58, 6-Acetoxy-3-{2-[3-(2-quinolylmethoxy)benzyl]-tetrazolyl}quinolin-2-one] are 480 µM and 0.0382 µM.
The corresponding values for `NCC(=O)Oc1ccc2[nH]c(=O)c(-c3nnn(Cc4cccc(OCc5ccc6ccccc6n5)c4)n3)cc2c1` [Example 64, 6-Glycyloxy-3-{2-[3-(2-quinolylmethoxy)-benzyl]tetrazolyl}quinolin-2-one] are 61.9 µM and 0.0221 µM.
